Data on 4 compounds can be found in patent US20240216514A1, “NOVEL ANTITUMOR COMPOUNDS AND RELATED METHODS OF MANUFACTURE AND USE” (KLOTHO THERAPEUTICS, INC., priority 2021, published 2024).

In one series the test system is MCF-7. Briefly: Tumor cell growth inhibition, CellTiter-Glo viability, MCF-7. Particulars: MCF-7, Breast; 72 hours. In kind it is cell-based. How it is done: (§1) To support the potential of compounds of the invention as antitumor agents, their ability to inhibit tumor cell growth across a range of cancer types was evaluated, compared to cisplatin (See FIGS. 3A-3C and FIGS. 4A-4C). Cancer cells were seeded at optimized density on 384-well plates in appropriate media for 24 hours in triplicate for each test article. Titrated compounds or cisplatin were added to cultures for 72 hours with 3-fold dilutions totaling 9 concentrations starting from 30 uM for compounds or 50 uM for cisplatin (see FIGS. 3A-3C). Cell viability was then determined by CellTiter-Glo® Luminescent Cell Viability Assay from Promega, Madison Wisconsin. A dose response curve (see FIGS. 4A-4C) was fitted from luminance activity and the IC50 for each test article was calculated using a four-parameter variable slope in GraphPad Prism version 8.0.0 for Windows, GraphPad Software, San Diego, California USA, www.graphpad.com. Conjugates were more cytotoxic to cancer cells compared to cisplatin alone, some were particularly noteworthy in colon cancer (HCT-15), prostate cancer (PC-3), and breast cancer (MCF-7) cells compared to cisplatin (see, also, Table 1, below).
In general terms: Cellular ATP, detected with luciferase, serves as a proxy for viable cell number.

The subject of another series is LNCap. Briefly: Tumor cell growth inhibition, CellTiter-Glo viability, LNCap. Particulars: Prostate, 72 hours. In kind it is cell-based. How it is done:
as §1

Another series has as its system PC-3. Briefly: Tumor cell growth inhibition, CellTiter-Glo viability, PC-3. In kind it is cell-based. Particulars: PC-3, Prostate; 72 hours. As to the method: as §1
A further series concerns H929. Briefly: Tumor cell growth inhibition, CellTiter-Glo viability, H929. In kind it is cell-based. Particulars: H929, Bone Marrow; 72 hours. As to the method: as §1
The subject of a further series is MDA-MB-231. The series is described as follows: Tumor cell growth inhibition, CellTiter-Glo viability, MDA-MB-231. Format: cell-based. Particulars: MDA-MB-231, Breast; 72 hours. As to the method:
as §1

The next series concerns Hela. Briefly: Tumor cell growth inhibition, CellTiter-Glo viability, Hela. Format: cell-based. Particulars: Cervical, 72 hours. How it is done: as §1
The next series deals with Huh-7. Briefly: Tumor cell growth inhibition, CellTiter-Glo viability, Huh-7. Format: cell-based. Particulars: Huh-7, Liver; 72 hours. How it is done: as §1
A further series has as its system HCT-15. Briefly: Tumor cell growth inhibition, CellTiter-Glo viability, HCT-15. In kind it is cell-based. Particulars: HCT-15, Colon; 72 hours. As to the method: as §1
The next series relates to HepG2-PM4. Briefly: Tumor cell growth inhibition, CellTiter-Glo viability, HepG2-PM4. Format: cell-based. Particulars: HepG2-PM4, Liver; 72 hours. As to the method: as §1
Series [1] can be described thus: Chemoprotection against cisplatin-induced myelotoxicity. Particulars: preliminary results. An excerpt: Accordingly, by combining PTBA or its analogs with cisplatin through chemical conjugation, not only will the conjugate drug have the potential to act as a synergistic anti-cancer drug combination in its own right, but PTBA and its analogs will also provide for chemoprotection against nephrotoxicity during cancer therapy. […] By reducing adverse side effects, this chemoprotective characteristic of PTBA and its analogs, co-administered as a chemical conjugate with cisplatin, has the potential to increase drug tolerability, to permit uninterrupted treatment schedules, and to eliminate the need to reduce drug doses.

The test system of series [2] is nephrotoxin-induced and ischemia/reperfusion-induced kidney injury. Particulars: rodents; cited from earlier work.
In the next series the target is HDAC8 (Homo sapiens, UniProt Q9BY41). Particulars: cited from earlier work.
Sequence of HDAC8 (Q9BY41 whole entry): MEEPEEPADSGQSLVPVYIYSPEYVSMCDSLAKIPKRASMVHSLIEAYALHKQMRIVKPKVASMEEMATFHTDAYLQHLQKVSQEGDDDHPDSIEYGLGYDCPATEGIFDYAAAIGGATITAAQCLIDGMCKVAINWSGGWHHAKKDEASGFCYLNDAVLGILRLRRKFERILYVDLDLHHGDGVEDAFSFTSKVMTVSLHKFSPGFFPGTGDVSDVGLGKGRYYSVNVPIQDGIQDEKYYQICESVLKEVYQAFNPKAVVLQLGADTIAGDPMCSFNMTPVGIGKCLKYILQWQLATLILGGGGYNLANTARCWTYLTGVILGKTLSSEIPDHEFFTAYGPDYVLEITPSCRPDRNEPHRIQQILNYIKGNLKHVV

For `N.N.[Cl][Pt][Cl]` [Cisplatin, cisdiamminedichloroplatinum [II]], the half-inhibitory concentration (IC50) (commonly the concentration that inhibits the measured activity by half) in the series on MCF-7 stood at 2.25 µM; in the series with LNCap, 10.9 µM; with PC-3, 22 µM; in the series on H929, 2.35 µM; in the series with MDA-MB-231 it was 2.85 µM; in the series on Hela, 12.3 µM. Besides, the IC50 was 6.47 µM in the series on Huh-7, 24.3 µM with HCT-15 and 14 µM in the series with HepG2-PM4.

As to `O=C(O)CCCSc1ccccc1` [PTBA, 4-(phenylthio)butanoic acid], the “Chemoprotective effect against cisplatin-induced myelotoxicity” value in [1] is reported as “chemoprotective effect”. Also, in [2], the “Recovery of kidney function after AKI” value was “significantly accelerate recovery of kidney function”.

As for `O=C(CCCCCCC(=O)Nc1ccccc1)NO` [Vorinostat, suberoylanilide hydroxamic acid], on HDAC8, the “Inhibition of HDAC8 (potency range)” value is given as “micromolar range”.

Regarding Trichostatin A, on HDAC8, the “Concentration that completely inhibits HDAC8 activity” value was 5 µM.
